Test results reported in US10550080B2 (BRISTOL-MYERS SQUIBB COMPANY, priority 2016, dated 2020).

What was measured:
NaV1.7 = NaV1.7 (Homo sapiens (Human), UniProt Q15858); test: Automated electrophysiology, IonWorks Barracuda population patch clamp, NaV1.7 current (inactivated-state protocol); type: cell-based; conditions: HEK 293 cells expressing NaV1.7; 600 sec compound incubation; read-out: NaV1.7 Barra IC50
Experimental: (§1) Automated Electrophysiology: Ion Works Barracuda population patch clamp (PPC). PPC measurements were performed using an IonWorks Barracuda instrument (Molecular Devices Corporation, Union City, Calif.) using either PatchPlate™ PPC substrates (Molecular Devices Corporation) with 64 apertures per well. The ability to average currents from 64 recordings from each well greatly improves data consistency and recording success rates in the measurement of NaV1.7 mediated ionic currents. Calculated leak current was digitally subtracted from the total cell NaV1.7 current for each sample point acquired.
(§2) NaV1.7 currents were elicited by a voltage clamp protocol designed to bias the NaV1.7 channels to their inactivated state as follows. From holding potential of −60 mV cells were briefly hyperpolarized to −100 mV for 1.25 sec, then stepped to −20 mV for 20 sec to inactivate the channels. This was followed by a relatively brief hyperpolarization to −100 mv for 300 ms, then a 20 msec test pulse to −20 mV to elicit the NaV1.7 current used to measure the pharmacology of all test compounds. Compounds were incubated for 600 sec between the pre- and post-compound reads. The external recording solution used was (in mM) 137 NaCl, 4 KCl, 1 MgCl2, 1.8 CaCl2, 10 Hepes, 10 glucose, pH to 7.4 with NaOH, and the internal solution used was (in mM) 100 K-gluconate, 40 KCl, 3.2 zMgCl2, 5 EGTA, 10 HEPES pH to 7.2 with KOH. The same solutions were used to record NaV1.5 currents, with the following voltage clamp protocol. NaV1.5 currents were elicited by a voltage clamp protocol designed to bias the NaV1.5 channels to their inactivated state as follows. From holding potential of −40 mV cells were briefly hyperpolarized to −100 mV for 300 ms, then stepped to −10 mV for 20 sec to inactivate the channels. This was followed by a relatively brief hyperpolarization to −100 mv for 30 ms, then a 20 msec test pulse to −10 mV to elicit the NaV1.5 current used to measure the pharmacology of all test compounds.
(§3) HEK 293 cells expressing NaV1.7 and NaV1.5 channels, were used (Essen Biosciences, Ann Arbor, Mich.). Cells were cultured in T-175 flasks and passaged every 2 to 3 days at 1:3 to 1:6 seeding density dilutions. Cells were grown to 70% to 90% confluence in a flask and removed from the incubator (37° C., 5% CO2) 1 to 3 days after plating. Growth medium was aspirated from the culture flasks. Cells were gently rinsed with 10 ml of PBS (Catalog number: 14190144, Gibco) to remove residual media. Next a total of 2 mL TrypLE (Gibco) solution was added, and the flasks containing cells were sat for 3 min at RT, after which, the cells became visibly rounded and were easily dislodged from the bottom of the flask with a few brief taps on a solid surface. A total of 8 mL of media was added to the flask to inactivate the TrypLE, and the mixture was centrifuged at 910 rpm for 4 min. The cell supernatant was decanted, and the cell pellets were resuspended in 5-6 mL of external solution followed by gentle triturations using a 10 ml pipette, and transferred to a 15 ml conical tube and immediately brought to the IW Barracuda instrument.
(§4) Peak membrane currents were analyzed with IW Barracuda software and exported to Excel for further analysis. Concentration response curve fitting was performed with BMS in-house software. IC50 values were obtained by fits of the Hill equation to the average percent inhibition data plotted versus compound concentration. […] Results are reported in Table 1 (NaV1.7 Barra IC50 in nM and NaV1.5 Barra IC50 in nM).

hNaV1.7 = hNaV1.7 (Homo sapiens (Human), UniProt Q15858); test: Ligand Binding Assay (LBA), radioligand displacement on hNaV1.7 HEK293 cell membranes; conditions: 0.5 nM [3H] radioligand, 24 hours at room temperature; read-out: NaV1.7 LBA IC50
Sequence of hNaV1.7 (Q15858 whole entry): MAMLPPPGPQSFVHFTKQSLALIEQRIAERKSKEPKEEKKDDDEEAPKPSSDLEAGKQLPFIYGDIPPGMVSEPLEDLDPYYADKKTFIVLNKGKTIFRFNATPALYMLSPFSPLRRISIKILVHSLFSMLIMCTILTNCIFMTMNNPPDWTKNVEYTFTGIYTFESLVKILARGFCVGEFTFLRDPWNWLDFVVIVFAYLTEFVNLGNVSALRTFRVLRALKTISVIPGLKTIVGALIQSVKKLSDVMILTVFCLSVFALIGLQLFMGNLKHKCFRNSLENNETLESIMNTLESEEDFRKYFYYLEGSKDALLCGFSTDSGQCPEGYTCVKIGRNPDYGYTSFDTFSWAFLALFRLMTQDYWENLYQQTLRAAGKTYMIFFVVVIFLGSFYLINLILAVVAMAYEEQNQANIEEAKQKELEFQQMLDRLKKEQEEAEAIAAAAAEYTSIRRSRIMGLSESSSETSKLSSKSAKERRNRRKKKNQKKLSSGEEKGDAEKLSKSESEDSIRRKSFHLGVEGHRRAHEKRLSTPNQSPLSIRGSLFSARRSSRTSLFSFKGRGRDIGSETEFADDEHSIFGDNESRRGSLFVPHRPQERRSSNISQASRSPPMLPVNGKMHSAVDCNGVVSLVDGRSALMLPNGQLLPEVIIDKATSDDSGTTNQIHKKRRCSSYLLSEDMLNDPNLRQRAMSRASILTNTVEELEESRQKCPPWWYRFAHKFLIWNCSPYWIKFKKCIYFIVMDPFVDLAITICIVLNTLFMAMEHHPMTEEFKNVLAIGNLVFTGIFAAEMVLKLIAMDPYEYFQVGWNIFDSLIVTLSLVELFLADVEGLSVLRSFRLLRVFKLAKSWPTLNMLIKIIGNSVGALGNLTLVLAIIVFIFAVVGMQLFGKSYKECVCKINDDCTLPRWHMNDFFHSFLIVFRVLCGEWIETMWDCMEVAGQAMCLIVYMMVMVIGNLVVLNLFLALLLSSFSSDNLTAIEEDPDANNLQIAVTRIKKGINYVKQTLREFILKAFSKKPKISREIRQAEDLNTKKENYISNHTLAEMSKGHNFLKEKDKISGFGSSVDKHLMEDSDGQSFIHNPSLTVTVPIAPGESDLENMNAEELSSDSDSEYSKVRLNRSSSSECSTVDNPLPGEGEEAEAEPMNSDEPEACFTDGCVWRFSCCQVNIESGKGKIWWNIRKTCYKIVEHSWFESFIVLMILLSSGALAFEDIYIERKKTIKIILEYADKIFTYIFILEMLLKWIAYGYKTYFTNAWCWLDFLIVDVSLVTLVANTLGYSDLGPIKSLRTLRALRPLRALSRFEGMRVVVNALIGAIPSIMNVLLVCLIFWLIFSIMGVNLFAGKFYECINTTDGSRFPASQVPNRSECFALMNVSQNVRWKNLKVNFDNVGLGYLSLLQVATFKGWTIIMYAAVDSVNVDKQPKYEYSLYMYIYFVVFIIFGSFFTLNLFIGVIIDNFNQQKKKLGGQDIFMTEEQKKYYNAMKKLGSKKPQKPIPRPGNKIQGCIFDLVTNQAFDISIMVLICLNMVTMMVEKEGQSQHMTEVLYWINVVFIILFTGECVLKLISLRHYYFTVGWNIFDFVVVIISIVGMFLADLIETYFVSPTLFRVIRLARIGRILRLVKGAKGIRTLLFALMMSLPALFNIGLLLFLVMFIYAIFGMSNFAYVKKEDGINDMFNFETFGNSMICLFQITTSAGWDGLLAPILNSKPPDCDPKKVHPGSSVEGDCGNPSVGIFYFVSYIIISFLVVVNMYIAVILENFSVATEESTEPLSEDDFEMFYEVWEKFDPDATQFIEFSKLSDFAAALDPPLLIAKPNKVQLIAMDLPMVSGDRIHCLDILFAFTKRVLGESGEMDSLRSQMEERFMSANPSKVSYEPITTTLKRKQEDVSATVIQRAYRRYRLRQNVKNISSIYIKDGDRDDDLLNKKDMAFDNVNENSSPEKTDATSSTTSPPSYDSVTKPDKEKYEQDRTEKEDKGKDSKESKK
Experimental: Ligand Binding Assay (LBA): hNaV1.7 binding affinities were determined with a filtration binding assay using purified membranes from HEK293 cells stably expressing hNaV1.7. HEK293 cells from a 10-stack cell culture flask (approximately 10^10 cells) were dissociated, frozen, and stored at −80° C. To prepare membranes, the frozen cell pellet was thawed and suspended in 6 ml hypotonic lysis buffer (50 mM HEPES, 0.1% mammalian protease inhibitor cocktail). 1 ml of resuspended cells was added to an additional 6 ml of lysis buffer and homogenized with 30 strokes of a tight pestle in a glass homogenizer. Homogenate was centrifuged at 1000×g for 10 minutes at 4° C. and the resulting supernatant was further centrifuged at 38,500×g for 60 minutes at 4° C. The resulting pellet was resuspended in binding buffer (50 mM HEPES, 130 mM NaCl, 5.4 mM KCl, 0.8 mM MgCl2, 5 mM glucose, pH 7.4) and needle homogenized with a 25 gauge needle. Protein concentration was determined with a BCA protein assay. Purified membranes were aliquoted, flash frozen in an ethyl alcohol dry ice bath, and stored at −80° C. To measure displacement of a radiolabeled ligand, 50 μg of purified hNaV1.7 HEK cell membranes were incubated with test compounds (eight concentrations, in duplicate) and 0.5 nM [3H] labeled radioligand in a 96 well plate for 24 hours at room temperature on a shaker. The total binding reaction volume was 250 μl, consisting of 200 μl purified hNaV1.7 HEK cell membranes, 25 μl test compound, and 25 μl radioligand. Non-specific binding was defined by 20 μM of a reference hNaV1.7 inhibitor. Binding reactions were terminated by filtration through GF/B filters presoaked in 0.5% polyethyleneamine. Filters were washed 5 times with 2 ml each of 4′C wash buffer (50 mM Tris-HCl, pH 7.4 at 4° C.). Bound radioactivity captured on the filters was counted on a liquid scintillation counter. Specific binding, expressed as % inhibition, was fit with Graphpad Prism software to determine binding IC50 values. Results are reported in Table 1 (NaV1.7 LBA IC50 in nM).

NaV1.5 = NaV1.5 (Homo sapiens (Human), UniProt Q14524); test: Automated electrophysiology, IonWorks Barracuda population patch clamp, NaV1.5 current (inactivated-state protocol); type: cell-based; conditions: HEK 293 cells expressing NaV1.5; read-out: NaV1.5 Barra IC50
Sequence of NaV1.5 (Q14524 whole entry): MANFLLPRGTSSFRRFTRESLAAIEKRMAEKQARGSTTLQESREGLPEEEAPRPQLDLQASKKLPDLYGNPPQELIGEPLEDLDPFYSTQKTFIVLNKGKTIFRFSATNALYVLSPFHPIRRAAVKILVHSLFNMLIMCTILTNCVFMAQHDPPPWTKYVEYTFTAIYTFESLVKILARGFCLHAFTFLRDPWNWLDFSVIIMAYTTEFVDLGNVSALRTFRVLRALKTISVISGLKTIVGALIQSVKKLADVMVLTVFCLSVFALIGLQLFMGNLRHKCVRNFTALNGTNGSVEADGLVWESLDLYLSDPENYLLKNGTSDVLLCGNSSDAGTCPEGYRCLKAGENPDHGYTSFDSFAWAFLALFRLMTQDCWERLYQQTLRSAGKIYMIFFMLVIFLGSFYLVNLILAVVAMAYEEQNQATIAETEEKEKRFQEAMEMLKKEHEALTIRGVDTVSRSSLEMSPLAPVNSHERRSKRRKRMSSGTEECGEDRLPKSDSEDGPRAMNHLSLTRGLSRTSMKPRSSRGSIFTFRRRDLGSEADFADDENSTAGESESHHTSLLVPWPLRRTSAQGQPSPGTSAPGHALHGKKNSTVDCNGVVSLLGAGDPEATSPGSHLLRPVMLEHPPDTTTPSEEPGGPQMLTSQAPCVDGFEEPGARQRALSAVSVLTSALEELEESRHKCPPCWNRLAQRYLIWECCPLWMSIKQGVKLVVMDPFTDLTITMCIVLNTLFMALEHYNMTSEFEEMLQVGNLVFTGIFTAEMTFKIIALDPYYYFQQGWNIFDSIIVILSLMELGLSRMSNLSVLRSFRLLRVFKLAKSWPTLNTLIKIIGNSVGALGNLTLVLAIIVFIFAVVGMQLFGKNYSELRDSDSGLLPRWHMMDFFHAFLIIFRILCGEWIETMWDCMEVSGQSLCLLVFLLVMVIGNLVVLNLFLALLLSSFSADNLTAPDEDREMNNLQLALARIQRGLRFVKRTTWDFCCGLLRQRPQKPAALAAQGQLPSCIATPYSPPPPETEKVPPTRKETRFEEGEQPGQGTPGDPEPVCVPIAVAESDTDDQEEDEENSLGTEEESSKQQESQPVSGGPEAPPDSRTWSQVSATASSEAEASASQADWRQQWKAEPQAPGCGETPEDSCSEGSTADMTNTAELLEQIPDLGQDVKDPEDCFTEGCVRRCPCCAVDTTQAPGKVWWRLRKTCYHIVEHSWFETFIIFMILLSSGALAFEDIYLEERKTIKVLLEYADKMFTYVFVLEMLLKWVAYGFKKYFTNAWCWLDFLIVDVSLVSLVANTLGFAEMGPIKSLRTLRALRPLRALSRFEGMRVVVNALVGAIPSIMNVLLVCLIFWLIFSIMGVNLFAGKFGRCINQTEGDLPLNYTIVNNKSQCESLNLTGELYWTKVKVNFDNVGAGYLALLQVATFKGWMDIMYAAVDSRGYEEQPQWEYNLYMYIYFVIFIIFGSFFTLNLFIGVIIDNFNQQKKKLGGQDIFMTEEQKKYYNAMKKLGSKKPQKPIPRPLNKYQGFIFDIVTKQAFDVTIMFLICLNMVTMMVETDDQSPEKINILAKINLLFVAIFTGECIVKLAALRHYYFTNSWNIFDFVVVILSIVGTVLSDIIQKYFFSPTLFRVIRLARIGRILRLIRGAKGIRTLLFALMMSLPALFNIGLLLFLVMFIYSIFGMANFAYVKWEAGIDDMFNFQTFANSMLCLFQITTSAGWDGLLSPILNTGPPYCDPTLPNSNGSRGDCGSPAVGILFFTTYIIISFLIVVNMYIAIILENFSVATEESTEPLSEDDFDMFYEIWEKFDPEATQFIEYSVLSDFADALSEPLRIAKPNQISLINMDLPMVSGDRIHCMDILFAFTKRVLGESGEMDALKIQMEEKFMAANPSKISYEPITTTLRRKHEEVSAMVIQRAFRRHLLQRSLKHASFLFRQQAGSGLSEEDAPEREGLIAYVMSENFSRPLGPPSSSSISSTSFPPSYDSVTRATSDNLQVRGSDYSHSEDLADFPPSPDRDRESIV
Experimental: as §1, §2, §3, §4

Sequence of NaV1.7 (Q15858 whole entry): as the sequence (Q15858 whole entry) above

Compound | IC50 (NaV1.7) [nM] | IC50 (hNaV1.7) [nM] | IC50 (NaV1.5) [nM]
Cn1cc(-c2ccc(C(F)(F)F)cc2)c2ccc(C(=O)NS(C)(=O)=O)cc21 [Example 1, 1-Methyl-N-(methylsulfonyl)-3-(4-(trifluoromethyl)phenyl)-1H-indole-6-carboxamide] | 85 | 422 | 19600
CC(C)COc1ncc(-c2cn(C)c3cc(C(=O)NS(C)(=O)=O)ccc23)cc1Cl [Example 2, 3-(5-Chloro-6-isobutoxypyridin-3-yl)-1-methyl-N-(methylsulfonyl)-1H-indole-6-carboxamide] | 90 | 91 | 18300
Cn1cc(-c2cccc(F)c2F)c2ccc(C(=O)NS(C)(=O)=O)cc21 [Example 3, 3-(2,3-Difluorophenyl)-1-methyl-N-(methylsulfonyl)-1H-indole-6-carboxamide] | 2860 | 4940 | > 30000
Cn1cc(-c2ccc(OC(F)(F)F)cc2)c2ccc(C(=O)NS(C)(=O)=O)cc21 [Example 4, 1-Methyl-N-(methylsulfonyl)-3-(4-(trifluoromethoxy)phenyl)-1H-indole-6-carboxamide] | 80 | 243 | 18300
Cn1cc(-c2ccccc2)c2ccc(C(=O)NS(C)(=O)=O)cc21 [Example 5, 1-Methyl-N-(methylsulfonyl)-3-phenyl-1H-indole-6-carboxamide] | 743 | 7270 | > 30000
COc1ncccc1-c1cn(C)c2cc(C(=O)NS(C)(=O)=O)ccc12 [Example 6, 3-(2-Methoxypyridin-3-yl)-1-methyl-N-(methylsulfonyl)-1H-indole-6-carboxamide] | > 30000 | > 30000 | > 30000
Cn1cc(-c2cncc(F)c2)c2ccc(C(=O)NS(C)(=O)=O)cc21 [Example 7, 3-(5-Fluoropyridin-3-yl)-1-methyl-N-(methylsulfonyl)-1H-indole-6-carboxamide] | > 30000 | – | > 30000
Cn1cc(-c2cccnc2)c2ccc(C(=O)NS(C)(=O)=O)cc21 [Example 8, 1-Methyl-N-(methylsulfonyl)-3-(pyridin-3-yl)-1H-indole-6-carboxamide] | > 30000 | – | –
CCOc1ncc(-c2cn(C)c3cc(C(=O)NS(C)(=O)=O)ccc23)cn1 [Example 9, 3-(2-Ethoxypyrimidin-5-yl)-1-methyl-N-(methylsulfonyl)-1H-indole-6-carboxamide] | > 30000 | > 20000 | > 30000
Cc1ccc(-c2cn(C)c3cc(C(=O)NS(C)(=O)=O)ccc23)cc1 [Example 10, 1-Methyl-N-(methylsulfonyl)-3-(p-tolyl)-1H-indole-6-carboxamide] | 739 | 1030 | > 30000
Cn1cc(-c2ccc(C(F)(F)F)cc2Cl)c2ccc(C(=O)NS(C)(=O)=O)cc21 [Example 11, 3-(2-Chloro-4-(trifluoromethyl)phenyl)-1-methyl-N-(methylsulfonyl)-1H-indole-6-carboxamide] | 604 | 750 | 8640
CC(C)Cc1ccc(-c2cn(C)c3cc(C(=O)NS(C)(=O)=O)ccc23)cc1 [Example 12, 3-(4-Isobutylphenyl)-1-methyl-N-(methylsulfonyl)-1H-indole-6-carboxamide] | 363 | 317 | > 30000
Cn1cc(-c2cccc(C(F)(F)F)c2)c2ccc(C(=O)NS(C)(=O)=O)cc21 [Example 13, 1-Methyl-N-(methylsulfonyl)-3-(3-(trifluoromethyl)phenyl)-1H-indole-6-carboxamide] | 1420 | 290 | > 30000
CCc1ccc(-c2cn(C)c3cc(C(=O)NS(C)(=O)=O)ccc23)cc1 [Example 14, 3-(4-Ethylphenyl)-1-methyl-N-(methylsulfonyl)-1H-indole-6-carboxamide] | 173 | 554 | > 30000
Cc1cccc(-c2cn(C)c3cc(C(=O)NS(C)(=O)=O)ccc23)c1 [Example 15, 1-Methyl-N-(methylsulfonyl)-3-(m-tolyl)-1H-indole-6-carboxamide] | 375 | 943 | > 30000
CC(C)COc1ccc(-c2cn(C)c3cc(C(=O)NS(C)(=O)=O)ccc23)cc1 [Example 22, 3-(4-Isobutoxyphenyl)-1-methyl-N-(methylsulfonyl)-1H-indole-6-carboxamide] | 525 | 275 | –
CC(C)COc1ncc(-c2cn(C)c3cc(C(=O)NS(=O)(=O)N(C)C)ccc23)cc1Cl [Example 25, 3-(5-Chloro-6-isobutoxypyridin-3-yl)-N—(N,N-dimethylsulfamoyl)-1-methyl-1H-indole-6-carboxamide] | 1280 | – | 6330
CC(C)COc1ncc(-c2cn(C)c3cc(C(=O)NS(=O)(=O)N4CCCCC4)ccc23)cc1Cl [Example 26, 3-(5-Chloro-6-isobutoxypyridin-3-yl)-1-methyl-N-(piperidin-1-ylsulfonyl)-1H-indole-6-carboxamide] | 4180 | – | 8770
CC(C)COc1ncc(-c2cn(CC(C)C)c3cc(C(=O)NS(C)(=O)=O)ccc23)cc1Cl [Example 27, 3-(5-Chloro-6-isobutoxypyridin-3-yl)-1-isobutyl-N-(methylsulfonyl)-1H-indole-6-carboxamide] | 3330 | – | 23700
CC(C)COc1ncc(-c2cn(CC(C)C)c3cc(C(=O)NS(=O)(=O)C4CC4)ccc23)cc1Cl [Example 28, 3-(5-Chloro-6-isobutoxypyridin-3-yl)-N-(cyclopropylsulfonyl)-1-isobutyl-1H-indole-6-carboxamide] | 8050 | – | 11300
CN(C)S(=O)(=O)NC(=O)c1ccc2c(-c3ccc(C(F)F)cc3)cn(C)c2c1 [Example 32, 3-(4-(Difluoromethyl)phenyl)-N—(N,N-dimethylsulfamoyl)-1-methyl-1H-indole-6-carboxamide] | 1910 | – | > 30000
CN(C)S(=O)(=O)NC(=O)c1ccc2c(-c3ccc(C(F)(F)F)cc3)cn(C)c2c1 [Example 33] | 1920 | – | 24500
